Assay results taken from patent US6737383B1, “Herbicidal oxadiazolidines” (priority 1999, dated 2004).

Assays:
velvetleaf = test: Test A velvetleaf; type: in vivo, Abutilon theophrasti; conditions: 0 to 10 scale where 0 is no effect and 10 is complete control
In short: (§1)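 Visual injury score, 0 (no effect) to 10 (complete control), vs untreated controls at ~11 d in greenhouse. Pre: soil drench on sandy loam. Post: spray to runoff, 1–2 leaf stage.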

crabgrass = test: Test A crabgrass; type: in vivo, Digitaria spp.; conditions: 0 to 10 scale where 0 is no effect and 10 is complete control
In short: as §1

morningglory = test: Test A morningglory; type: in vivo, Ipomoea spp.; conditions: 0 to 10 scale where 0 is no effect and 10 is complete control
In short: as §1

barnyardgrass = test: Test A barnyardgrass; type: in vivo, Echinochloa crus-galli; conditions: 0 to 10 scale where 0 is no effect and 10 is complete control
In short: as §1

itchgrass = test: Test D itchgrass; type: in vivo, Rottboellia exaltata; conditions: Preemergence, 0 to 100 scale
From the text: (§2) Seeds, tubers, or plant parts of Alexandergrass (Brachiaria plantaginea), bermuda-grass (Cynodon dactylon), common pursiane (Portulaca oleracea), common ragweed (Ambrosia elatior), common groundsel (Senecio vulgaris), dallisgrass (Paspalum dilatatum), goosegrass (Eleusine indica), guineagrass (Panicum maximum), itchgrass (Rottboellia exaltata), Johnson grass (Sorghum halepense), large crabgrass (Digitaria sanguinalis), pitted morningglory (Ipomoea lacunosa), purple nutsedge (Cyperus rotundus), sandbur (Cenchrus echinatus), sourgrass (Trichachne insularis), Spanishneedles (Bidens bipinnata), surinam grass (Brachiaria decumbens) and tall mallow (Malva sylvestris) were planted into greenhouse pots of flats containing greenhouse planting medium. Plant species were grown in separate pots or individual compartments. Preemergence applications were made within one day of planting the seed or plant part.
(§3) Test chemicals were formulated in a non-phytotoxic solvent mixture which included a surfactant and applied preemergence to the surface of the pot containing seeds in a sandy loam soil. Untreated control pots and treated pots were placed in the greenhouse for growth and visually evaluated for injury 14 to 21 days after herbicide application. Plant response ratings, summarized in Table C, are based on a 0 to 100 scale where 0 is no injury and 100 is complete control. A dash (−) response means no test result.

dallisgrass = test: Test D dallisgrass; type: in vivo, Paspalum dilatatum; conditions: Preemergence, 0 to 100 scale
From the text: as §2, §3

guineagrass = test: Test D guineagrass; type: in vivo, Panicum maximum; conditions: Preemergence, 0 to 100 scale
In short: (§4)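 Herbicide screen in the greenhouse. A non-phytotoxic solvent mixture with surfactant carried the test chemical; in pre-emergence tests it went onto the soil of pots seeded no more than a day earlier. Injury was scored by eye 14 to 21 days after application, 0 to 100.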

surinam grass = test: Test D surinam grass; type: in vivo, Brachiaria decumbens; conditions: Preemergence, 0 to 100 scale
From the text: as §2, §3

pitted morningglory = test: Test D pitted morningglory; type: in vivo, Ipomoea lacunosa; conditions: Preemergence, 0 to 100 scale
In short: as §4

goosegrass = test: Test D goosegrass; type: in vivo, Eleusine indica; conditions: Preemergence, 0 to 100 scale
In short: as §4

common pursiane = test: Test D common purslane; type: in vivo, Portulaca oleracea; conditions: Preemergence, 0 to 100 scale
In short: as §4

Alexandergrass = test: Test D Alexandergrass; type: in vivo, Brachiaria plantaginea; conditions: Preemergence, 0 to 100 scale
In short: as §4

large crabgrass = test: Test D large crabgrass; type: in vivo, Digitaria sanguinalis; conditions: Preemergence, 0 to 100 scale
From the text: as §2, §3

common ragweed = test: Test D common ragweed; type: in vivo, Ambrosia elatior; conditions: Preemergence, 0 to 100 scale
In short: as §4

purple nutsedge = test: Test D purple nutsedge; type: in vivo, Cyperus rotundus; conditions: Preemergence, 0 to 100 scale
From the text: as §2, §3

bermuda-grass = test: Test D bermudagrass; type: in vivo, Cynodon dactylon; conditions: Preemergence, 0 to 100 scale
From the text: as §2, §3

Spanishneedles = test: Test D Spanishneedles; type: in vivo, Bidens bipinnata; conditions: Preemergence, 0 to 100 scale
In short: as §4

[1] = Rate 32 g/ha, 0 no injury, 100 complete control
[2] = Rate 64 g/ha, 0 no injury, 100 complete control
[3] = Rate 125 g/ha, 0 no injury, 100 complete control
[4] = Rate 16 g/ha, 0 no injury, 100 complete control

## CCN(CC)C(=O)n1oc(=O)n(-c2ccc(F)cc2)c1=O [Compound 3]
velvetleaf; Postemergence, Rate 1000 g/ha
  Plant response rating, Velvetleaf: 0
velvetleaf; Pre-emergence, Rate 2000 g/ha
  Plant response rating, Velvetleaf: 0
crabgrass; Postemergence, Rate 1000 g/ha
  Plant response rating, Crabgrass: 0
crabgrass; Pre-emergence, Rate 2000 g/ha
  Plant response rating, Crabgrass: 3
morningglory; Postemergence, Rate 1000 g/ha
  Plant response rating, Morningglory: 0
morningglory; Pre-emergence, Rate 2000 g/ha
  Plant response rating, Morningglory: 0
barnyardgrass; Postemergence, Rate 1000 g/ha
  Plant response rating, Barnyardgrass: 6
barnyardgrass; Pre-emergence, Rate 2000 g/ha
  Plant response rating, Barnyardgrass: 9

## Cc1ccc(-n2c(=O)on(C(=O)N(c3ccc(F)cc3F)C(C)C)c2=O)c(C)c1 [Compound 24]
itchgrass; [1]
  Plant response rating, Itchgrass: 40
itchgrass; [2]
  Plant response rating, Itchgrass: 40
itchgrass; [3]
  Plant response rating, Itchgrass: 40
itchgrass; Rate 250 g/ha
  Plant response rating, Itchgrass: 40
itchgrass; Rate 500 g/ha
  Plant response rating, Itchgrass: 40
dallisgrass; [1]
  Plant response rating, Dallisgrass: 30
dallisgrass; [2]
  Plant response rating, Dallisgrass: 30
dallisgrass; [3]
  Plant response rating, Dallisgrass: 98
dallisgrass; Rate 250 g/ha
  Plant response rating, Dallisgrass: 98
dallisgrass; Rate 500 g/ha
  Plant response rating, Dallisgrass: 100
guineagrass; [1]
  Plant response rating, Guineagrass: 60
guineagrass; [2]
  Plant response rating, Guineagrass: 75
guineagrass; [3]
  Plant response rating, Guineagrass: 90
guineagrass; Rate 250 g/ha
  Plant response rating, Guineagrass: 98
guineagrass; Rate 500 g/ha
  Plant response rating, Guineagrass: 100
Surinam grass; [1]
  Plant response rating, Surinam grass: 10
Surinam grass; [2]
  Surinam grass plant response rating: 10
Surinam grass; [3]
  Surinam grass plant response rating: 10
Surinam grass; Rate 250 g/ha
  Plant response rating, Surinam grass: 10
Surinam grass; Rate 500 g/ha
  Plant response rating, Surinam grass: 65
Pitted morningglory; [1]
  Plant response rating, P. morninglory: 0
Pitted morningglory; [2]
  Plant response rating, P. morninglory: 0
Pitted morningglory; [3]
  Plant response rating, P. morninglory: 0
Pitted morningglory; Rate 250 g/ha
  Plant response rating, P. morninglory: 0
Pitted morningglory; Rate 500 g/ha
  Plant response rating, P. morninglory: 0
goosegrass; [1]
  Plant response rating, Goosegrass: 50
goosegrass; [2]
  Plant response rating, Goosegrass: 50
goosegrass; [3]
  Plant response rating, Goosegrass: 98
goosegrass; Rate 250 g/ha
  Plant response rating, Goosegrass: 98
goosegrass; Rate 500 g/ha
  Plant response rating, Goosegrass: 100
Common pursiane; [1]
  Plant response rating, C. purslane: 0
Common pursiane; [2]
  Plant response rating, C. purslane: 0
Common pursiane; [3]
  Plant response rating, C. purslane: 0
Common pursiane; Rate 250 g/ha
  Plant response rating, C. purslane: 0
Common pursiane; Rate 500 g/ha
  Plant response rating, C. purslane: 0
Alexandergrass; [1]
  Plant response rating, Alexandergrass: 10
Alexandergrass; [2]
  Plant response rating, Alexandergrass: 10
Alexandergrass; [3]
  Plant response rating, Alexandergrass: 10
Alexandergrass; Rate 250 g/ha
  Plant response rating, Alexandergrass: 65
Alexandergrass; Rate 500 g/ha
  Plant response rating, Alexandergrass: 98
Large crabgrass; [1]
  Plant response rating, Large crabgrass: 70
Large crabgrass; [2]
  Plant response rating, Large crabgrass: 70
Large crabgrass; [3]
  Plant response rating, Large crabgrass: 100
Large crabgrass; Rate 250 g/ha
  Plant response rating, Large crabgrass: 100
Large crabgrass; Rate 500 g/ha
  Plant response rating, Large crabgrass: 100
Common ragweed; [1]
  Plant response rating, C. ragweed: 0
Common ragweed; [2]
  Plant response rating, C. ragweed: 0
Common ragweed; [3]
  Plant response rating, C. ragweed: 0
Common ragweed; Rate 250 g/ha
  Plant response rating, C. ragweed: 0
Common ragweed; Rate 500 g/ha
  Plant response rating, C. ragweed: 0
Purple nutsedge; [1]
  Plant response rating, Purple nutsedge: 0
Purple nutsedge; [2]
  Purple nutsedge plant response rating: 0
Purple nutsedge; [3]
  Purple nutsedge plant response rating: 0
Purple nutsedge; Rate 250 g/ha
  Plant response rating, Purple nutsedge: 0
Purple nutsedge; Rate 500 g/ha
  Plant response rating, Purple nutsedge: 0
bermuda-grass; [1]
  Plant response rating, Bermudagrass: 75
bermuda-grass; [2]
  Plant response rating, Bermudagrass: 95
bermuda-grass; [3]
  Plant response rating, Bermudagrass: 98
bermuda-grass; Rate 250 g/ha
  Plant response rating, Bermudagrass: 100
bermuda-grass; Rate 500 g/ha
  Plant response rating, Bermudagrass: 100
Spanishneedles; [1]
  Plant response rating, Spanishneedles: 0
Spanishneedles; [2]
  Spanishneedles plant response rating: 0
Spanishneedles; [3]
  Spanishneedles plant response rating: 0
Spanishneedles; Rate 500 g/ha
  Plant response rating, Spanishneedles: 0

## CC(C)N(C(=O)n1oc(=O)n(C(C)C)c1=O)c1ccccc1 [Compound 113]
itchgrass; [4]
  Plant response rating, Itchgrass: 10
itchgrass; [1]
  Plant response rating, Itchgrass: 40
itchgrass; [2]
  Plant response rating, Itchgrass: 50
itchgrass; [3]
  Plant response rating, Itchgrass: 60
dallisgrass; [4]
  Plant response rating, Dallisgrass: 0
dallisgrass; [1]
  Plant response rating, Dallisgrass: 95
dallisgrass; [2]
  Plant response rating, Dallisgrass: 100
dallisgrass; [3]
  Plant response rating, Dallisgrass: 100
guineagrass; [4]
  Plant response rating, Guineagrass: 85
guineagrass; [1]
  Plant response rating, Guineagrass: 100
guineagrass; [2]
  Plant response rating, Guineagrass: 100
guineagrass; [3]
  Plant response rating, Guineagrass: 100
Surinam grass; [4]
  Plant response rating, Surinam grass: 85
Surinam grass; [1]
  Plant response rating, Surinam grass: 90
Surinam grass; [2]
  Surinam grass plant response rating: 98
Surinam grass; [3]
  Surinam grass plant response rating: 100
Pitted morningglory; [4]
  Plant response rating, P. morninglory: 10
Pitted morningglory; [1]
  Plant response rating, P. morninglory: 10
Pitted morningglory; [2]
  Plant response rating, P. morninglory: 10
Pitted morningglory; [3]
  Plant response rating, P. morninglory: 10
goosegrass; [4]
  Plant response rating, Goosegrass: 90
goosegrass; [1]
  Plant response rating, Goosegrass: 100
goosegrass; [2]
  Plant response rating, Goosegrass: 100
goosegrass; [3]
  Plant response rating, Goosegrass: 100
Common pursiane; [4]
  Plant response rating, C. purslane: 0
Common pursiane; [1]
  Plant response rating, C. purslane: 0
Common pursiane; [2]
  Plant response rating, C. purslane: 0
Common pursiane; [3]
  Plant response rating, C. purslane: 0
Alexandergrass; [4]
  Plant response rating, Alexandergrass: 65
Alexandergrass; [1]
  Plant response rating, Alexandergrass: 85
Alexandergrass; [2]
  Plant response rating, Alexandergrass: 98
Alexandergrass; [3]
  Plant response rating, Alexandergrass: 98
Large crabgrass; [4]
  Plant response rating, Large crabgrass: 85
Large crabgrass; [1]
  Plant response rating, Large crabgrass: 100
Large crabgrass; [2]
  Plant response rating, Large crabgrass: 100
Large crabgrass; [3]
  Plant response rating, Large crabgrass: 100
Common ragweed; [4]
  Plant response rating, C. ragweed: 0
Common ragweed; [1]
  Plant response rating, C. ragweed: 0
Common ragweed; [2]
  Plant response rating, C. ragweed: 0
Common ragweed; [3]
  Plant response rating, C. ragweed: 0
Purple nutsedge; [4]
  Plant response rating, Purple nutsedge: 0
Purple nutsedge; [1]
  Plant response rating, Purple nutsedge: 0
Purple nutsedge; [2]
  Purple nutsedge plant response rating: 20
Purple nutsedge; [3]
  Purple nutsedge plant response rating: 30
bermuda-grass; [4]
  Plant response rating, Bermudagrass: 98
bermuda-grass; [1]
  Plant response rating, Bermudagrass: 100
bermuda-grass; [2]
  Plant response rating, Bermudagrass: 100
bermuda-grass; [3]
  Plant response rating, Bermudagrass: 100
Spanishneedles; [4]
  Plant response rating, Spanishneedles: 0
Spanishneedles; [1]
  Plant response rating, Spanishneedles: 0
Spanishneedles; [2]
  Spanishneedles plant response rating: 0
Spanishneedles; [3]
  Spanishneedles plant response rating: 0

## C=CCn1c(=O)on(C(=O)N(c2ccc(F)cc2F)C2CC2)c1=O [Compound 127]
velvetleaf; Postemergence, Rate 1000 g/ha
  Plant response rating, Velvetleaf: 0
velvetleaf; Pre-emergence, Rate 2000 g/ha
  Plant response rating, Velvetleaf: 0
crabgrass; Postemergence, Rate 1000 g/ha
  Plant response rating, Crabgrass: 7
crabgrass; Pre-emergence, Rate 2000 g/ha
  Plant response rating, Crabgrass: 8
morningglory; Postemergence, Rate 1000 g/ha
  Plant response rating, Morningglory: 0
morningglory; Pre-emergence, Rate 2000 g/ha
  Plant response rating, Morningglory: 0
barnyardgrass; Postemergence, Rate 1000 g/ha
  Plant response rating, Barnyardgrass: 6
barnyardgrass; Pre-emergence, Rate 2000 g/ha
  Plant response rating, Barnyardgrass: 9
